In assay [1] the target is Neuronal acetylcholine receptor. The assay is described as follows: Binding affinity to nAChR in rat brain membranes. It is filed as cell membranes, Membrane.
Assay [2] concerns the target T1, Neuronal acetylcholine receptor; alpha3/beta4 (Homo sapiens, UniProt P30926+P32297). The assay is described as follows: Agonist activity at human alpha3beta4 nAChR expressed in Xenopus laevis oocytes assessed as increase in peak current at 100 uM at -60 mV holding potential by electrophysiology method. It counts as cell-based.
The target of assay [3] is T2, Neuronal acetylcholine receptor; alpha4/beta2 (Homo sapiens) (UniProt P17787+P43681). The assay is described as follows: Agonist activity at alpha4beta2 nAChR (unknown origin) expressed in Xenopus laevis oocytes assessed as increase in peak current at 30 uM at -60 mV holding potential by electrophysiology method. It is filed as cell-based.
The target in assay [4] is Neuronal acetylcholine receptor subunit alpha-7 (Homo sapiens) (UniProt P36544). The assay is described as follows: Agonist activity at alpha7 nAChR (unknown origin) expressed in Xenopus laevis oocytes assessed as increase in peak current at 60 uM at -60 mV holding potential by electrophysiology method. It counts as cell-based.
Assay [5] deals with T1, Neuronal acetylcholine receptor; alpha3/beta4. The assay is described as follows: Antagonist activity at human alpha3beta4 nAChR expressed in Xenopus laevis oocytes assessed as reduction in acetylcholine-induced peak current at 100 uM at -60 mV holding potential by electrophysiology method. It counts as cell-based.
For assay [6], the target named is T2, Neuronal acetylcholine receptor; alpha4/beta2 (Homo sapiens). The assay is described as follows: Antagonist activity at alpha4beta2 nAChR (unknown origin) expressed in Xenopus laevis oocytes assessed as reduction in acetylcholine-induced peak current at 30 uM at -60 mV holding potential by electrophysiology method. It counts as cell-based.
In assay [7] the target is Neuronal acetylcholine receptor subunit alpha-7 (Homo sapiens) (UniProt P36544). The assay is described as follows: Antagonist activity at alpha7 nAChR (unknown origin) expressed in Xenopus laevis oocytes assessed as reduction in acetylcholine-induced peak current at 60 uM at -60 mV holding potential by electrophysiology method. It is filed as cell-based.
Assay [8] deals with T1, Neuronal acetylcholine receptor; alpha3/beta4. The assay is described as follows: Antagonist activity at human alpha3beta4 nAChR expressed in Xenopus laevis oocytes assessed as reduction in acetylcholine-induced peak current at -60 mV holding potential by electrophysiology method. It counts as cell-based.

Activity calls are given as the source filed them. The rule behind the calls is not given here.

Sequence of Neuronal acetylcholine receptor subunit alpha-7 (Homo sapiens) (P36544 whole entry): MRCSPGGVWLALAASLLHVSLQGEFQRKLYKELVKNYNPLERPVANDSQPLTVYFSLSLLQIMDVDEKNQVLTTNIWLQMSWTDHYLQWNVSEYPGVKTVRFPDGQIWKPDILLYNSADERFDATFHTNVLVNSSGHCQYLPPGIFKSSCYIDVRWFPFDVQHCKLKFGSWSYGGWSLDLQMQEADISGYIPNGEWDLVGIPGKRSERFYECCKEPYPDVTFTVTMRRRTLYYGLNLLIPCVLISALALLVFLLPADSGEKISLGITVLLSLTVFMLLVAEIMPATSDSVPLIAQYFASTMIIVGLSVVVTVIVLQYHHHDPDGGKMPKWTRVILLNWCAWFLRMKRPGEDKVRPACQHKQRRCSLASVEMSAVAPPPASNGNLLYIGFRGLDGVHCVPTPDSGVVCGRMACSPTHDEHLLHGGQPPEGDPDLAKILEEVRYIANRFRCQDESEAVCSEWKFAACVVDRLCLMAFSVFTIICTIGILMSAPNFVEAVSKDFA
T1 sequence (P30926 whole entry): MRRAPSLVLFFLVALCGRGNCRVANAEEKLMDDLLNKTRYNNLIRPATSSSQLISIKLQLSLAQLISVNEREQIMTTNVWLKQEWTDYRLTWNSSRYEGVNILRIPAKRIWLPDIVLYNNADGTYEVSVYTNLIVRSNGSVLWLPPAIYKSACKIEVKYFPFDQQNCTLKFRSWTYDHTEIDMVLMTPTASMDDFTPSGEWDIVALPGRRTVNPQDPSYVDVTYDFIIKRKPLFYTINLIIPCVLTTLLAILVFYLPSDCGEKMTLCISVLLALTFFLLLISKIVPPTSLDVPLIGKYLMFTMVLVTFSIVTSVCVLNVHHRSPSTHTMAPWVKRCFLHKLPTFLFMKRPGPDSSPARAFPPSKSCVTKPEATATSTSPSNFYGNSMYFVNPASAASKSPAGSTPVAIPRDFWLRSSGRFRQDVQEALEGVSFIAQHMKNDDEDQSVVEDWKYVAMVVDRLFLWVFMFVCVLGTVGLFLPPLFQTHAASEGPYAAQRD
T1 sequence (P32297 whole entry): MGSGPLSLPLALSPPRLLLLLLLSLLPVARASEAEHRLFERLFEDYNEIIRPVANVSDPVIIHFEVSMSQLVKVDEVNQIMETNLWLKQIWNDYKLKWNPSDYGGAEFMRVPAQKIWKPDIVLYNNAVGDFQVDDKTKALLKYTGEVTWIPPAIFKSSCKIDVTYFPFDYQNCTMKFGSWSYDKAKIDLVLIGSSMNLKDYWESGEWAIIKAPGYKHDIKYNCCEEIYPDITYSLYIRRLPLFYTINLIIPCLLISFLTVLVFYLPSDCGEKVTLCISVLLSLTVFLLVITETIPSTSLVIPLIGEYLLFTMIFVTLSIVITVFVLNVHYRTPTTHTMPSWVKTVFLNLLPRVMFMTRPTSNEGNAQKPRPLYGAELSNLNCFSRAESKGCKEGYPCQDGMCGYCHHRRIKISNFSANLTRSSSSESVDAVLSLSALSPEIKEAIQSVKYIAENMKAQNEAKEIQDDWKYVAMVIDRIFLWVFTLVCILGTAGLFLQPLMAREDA

Take `CN1CCC=C(c2ccc(Cl)nc2)C1`: binding in assay [1] was put at a Kd of 2.2 nM. This counts as single-digit nanomolar.

`CN1CCC=C(c2cnc(F)c(-c3ccccc3)c2)C1`: the result in assay [2], in assay [3] and in assay [4] was inactive. Besides, in assay [5], the inhibition entry is “Active”. Also, the inhibition result in assay [6] and in assay [7] was “inactive” throughout. Moreover, in assay [8], the IC50 is 20000 nM. Besides, the inhibition constant (Ki) in assay [8] came to 123 nM.

As a reminder, the Kd is the constant that tells how readily two partners part at equilibrium. Read a low Kd as tighter binding. As usually defined, the IC50 is the concentration at which inhibition is half-maximal. Broadly, the Ki is the equilibrium dissociation constant of an inhibitor or competing ligand from its target.

The record behind these values is ChEMBL document CHEMBL4177568 (Bioorg Med Chem Lett, 2017).
